pIC50: −log10 of the molar value.
Biological target: T1, PLK4 (Homo sapiens, UniProt O00444)
T1 sequence (O00444 1-970): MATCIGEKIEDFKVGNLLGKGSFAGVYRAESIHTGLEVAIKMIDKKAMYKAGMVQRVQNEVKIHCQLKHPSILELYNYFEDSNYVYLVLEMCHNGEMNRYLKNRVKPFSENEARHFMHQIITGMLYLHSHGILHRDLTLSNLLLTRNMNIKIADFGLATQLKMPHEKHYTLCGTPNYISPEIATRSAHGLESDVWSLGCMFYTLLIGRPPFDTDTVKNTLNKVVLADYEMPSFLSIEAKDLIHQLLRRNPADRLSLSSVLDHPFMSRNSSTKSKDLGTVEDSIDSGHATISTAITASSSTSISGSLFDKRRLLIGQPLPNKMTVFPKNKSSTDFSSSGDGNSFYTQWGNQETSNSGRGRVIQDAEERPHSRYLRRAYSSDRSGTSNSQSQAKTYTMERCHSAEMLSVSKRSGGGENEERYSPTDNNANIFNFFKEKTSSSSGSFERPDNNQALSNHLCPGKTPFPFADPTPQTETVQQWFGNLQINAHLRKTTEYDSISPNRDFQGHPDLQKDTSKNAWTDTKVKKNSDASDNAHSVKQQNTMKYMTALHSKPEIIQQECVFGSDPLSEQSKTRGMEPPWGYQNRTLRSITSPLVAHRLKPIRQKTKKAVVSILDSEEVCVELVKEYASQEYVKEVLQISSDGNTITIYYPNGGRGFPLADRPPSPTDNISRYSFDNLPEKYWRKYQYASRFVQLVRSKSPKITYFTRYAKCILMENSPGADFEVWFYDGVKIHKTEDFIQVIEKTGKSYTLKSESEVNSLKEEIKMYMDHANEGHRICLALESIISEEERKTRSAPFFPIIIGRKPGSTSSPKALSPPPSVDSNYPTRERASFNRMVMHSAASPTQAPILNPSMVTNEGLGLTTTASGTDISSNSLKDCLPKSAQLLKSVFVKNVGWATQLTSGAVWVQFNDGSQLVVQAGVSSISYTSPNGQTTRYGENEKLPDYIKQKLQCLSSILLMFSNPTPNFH
Experiment: Activity (IC50) of the Table 1 compounds as PLK4 inhibitors
Type: biochemical
Details: Table 1, IC50 class

| SMILES | pIC50 |
| --- | --- |
| Cc1cc(Nc2nc(Sc3ccc(NC(=O)C4CC4)cc3)nc(N3CCN(C(C)C)CC3)c2C)n[nH]1 | > 7.00 |
| CC(=O)N1CCN(c2nc(Sc3ccc(NC(=O)C4CC4)cc3)nc(Nc3cc(C)[nH]n3)c2C)CC1 | > 7.00 |
| COCCN1CCN(c2nc(Sc3ccc(NC(=O)C4CC4)cc3)nc(Nc3cc(C)[nH]n3)c2C)CC1 | > 7.00 |
| Cc1cc(Nc2nc(Sc3ccc(NC(=O)C4CC4)cc3)nc(N3CCN(C)C(C)C3)c2C)n[nH]1 (stereo not drawn) | > 7.00 |
| COCCN1CCN(c2nc(Sc3ccc(NC(C)=O)cc3)nc(Nc3cc(C)[nH]n3)c2C)CC1 | > 7.00 |
| CC(=O)Nc1ccc(Sc2nc(Nc3cc(C)[nH]n3)c(C)c(N3CCN(C(C)=O)CC3)n2)cc1 | > 7.00 |
| CC(=O)Nc1ccc(Sc2nc(Nc3cc(C)[nH]n3)c(C)c(N3CCNCC3)n2)cc1 | > 7.00 |
| CC(=O)Nc1ccc(Sc2nc(Nc3cc(C)[nH]n3)c(C)c(N3CCOCC3)n2)cc1 | > 7.00 |
| CC(=O)Nc1ccc(Sc2nc(Nc3cc(C)[nH]n3)c(C)c(N3CCN(C4CCN(C)CC4)CC3)n2)cc1 | > 7.00 |
| Cc1cc(Nc2nc(Sc3ccc(NC(=O)C4CCCC4)cc3)nc(N3CCN(CCN(C)C)CC3)c2C)n[nH]1 | > 7.00 |
| COCCN1CCN(c2nc(Sc3ccc(NC(=O)C4CCCC4)cc3)nc(Nc3cc(C)[nH]n3)c2C)CC1 | > 7.00 |
| CC(=O)N1CCN(c2nc(Sc3ccc(NC(=O)C4CCCC4)cc3)nc(Nc3cc(C)[nH]n3)c2C)CC1 | > 7.00 |
| Cc1cc(Nc2nc(Sc3ccc(NC(=O)C4CCCC4)cc3)nc(N3CCNCC3)c2C)n[nH]1 | > 7.00 |
| Cc1cc(Nc2nc(Sc3ccc(NC(=O)C4CCCC4)cc3)nc(N3CCOCC3)c2C)n[nH]1 | > 7.00 |
| Cc1cc(Nc2nc(Sc3ccc(NC(=O)C4CCCC4)cc3)nc(N3CCN(C4CCN(C)CC4)CC3)c2C)n[nH]1 | > 7.00 |
| COc1c(Nc2cc(C)[nH]n2)nc(Sc2ccc(NC(C)=O)cc2)nc1N1CCCCC1 | > 7.00 |
| CC(=O)Nc1ccc(Sc2nc(Nc3cc(C)[nH]n3)c(C)c(N(C)C(C)C)n2)cc1 | > 7.00 |
| CC(=O)Nc1ccc(Sc2nc(Nc3cc(C)[nH]n3)c(C)c(N3CCN(C(=O)CCN(C)C)CC3)n2)cc1 | > 7.00 |

| SMILES | pIC50 |
| --- | --- |
| COCC(=O)N1CCN(c2nc(Sc3ccc(NC(C)=O)cc3)nc(Nc3cc(C)[nH]n3)c2C)CC1 | > 7.00 |
| Cc1cc(Nc2nc(Sc3ccc(NC(=O)C4CCCC4)cc3)nc(N(C)C(C)C)c2C)n[nH]1 | > 7.00 |
| COCC(=O)N1CCN(c2nc(Sc3ccc(NC(=O)C4CCCC4)cc3)nc(Nc3cc(C)[nH]n3)c2C)CC1 | > 7.00 |
| Cc1cc(Nc2nc(Sc3ccc(NC(=O)C4CCCC4)cc3)nc(N3CCCCC3)c2C)n[nH]1 | > 7.00 |
| CCN(C)c1nc(Sc2ccc(NC(=O)C3CCCC3)cc2)nc(Nc2cc(C)[nH]n2)c1C | > 7.00 |
| Cc1cc(Nc2nc(Sc3ccc(NC(=O)C4CCCC4)cc3)nc(N(C)C)c2C)n[nH]1 | > 7.00 |
| CC(=O)Nc1ccc(Sc2nc(Nc3cc(C)[nH]n3)c(C)c(N3CCC(O)CC3)n2)cc1 | > 7.00 |
| CC(=O)Nc1ccc(Sc2nc(Nc3cc(C)[nH]n3)c(C)c(N3CCCC3)n2)cc1 | > 7.00 |
| CC(=O)Nc1ccc(Sc2nc(Nc3cc(C)[nH]n3)c(C)c(N3CCCCCC3)n2)cc1 | > 7.00 |
| CC(=O)Nc1ccc(Sc2nc(Nc3cc(C)[nH]n3)c(C)c(N3CC=CCC3)n2)cc1 | > 7.00 |
| CC(=O)Nc1ccc(Sc2nc(Nc3cc(C)[nH]n3)c(C)c(N3CC=C(F)CC3)n2)cc1 | > 7.00 |
| CC(=O)Nc1ccc(Sc2nc(Nc3cc(C)[nH]n3)c(C)c(N3CCC(C)CC3)n2)cc1 | > 7.00 |
| CC(=O)Nc1ccc(Sc2nc(Nc3cc(C)[nH]n3)c(Cl)c(N3CCN(C)CC3)n2)cc1 | > 7.00 |
| CSc1nc(Nc2cc(C)[nH]n2)c(Cl)c(N2CCCCC2)n1 | > 7.00 |
| Cc1cc(Nc2nc(Sc3ccccc3)nc(N3CCCCC3)c2C)n[nH]1 | > 7.00 |
| Cc1ccc(Sc2nc(Nc3cc(C)[nH]n3)c(C)c(N3CCCCC3)n2)cc1 | > 7.00 |
| Cc1cc(Nc2nc(Sc3ccc(N)cc3)nc(N3CCCCC3)c2C)n[nH]1 | > 7.00 |
| CNC(=O)Nc1ccc(Sc2nc(Nc3cc(C)[nH]n3)c(C)c(N3CCCCC3)n2)cc1 | > 7.00 |

From patent US11612604B2, “Methods of treating cancer with PLK4 inhibitors” (LUDWIG INSTITUTE FOR CANCER RESEARCH LTD, priority 2017, dated 2023)
